# In patent publication US9969742B2, “Imidazotriazinone compounds” (Ironwood Pharmaceuticals, Inc., priority 2012, dated 2018):
# Where two headings read alike, the source gives them in different places.
# How the values were obtained:
# Format in all cases: biochemical
# PDE9A2 = biological target: T1, PDE9A2 (Homo sapiens, UniProt O76083); test: Phosphodiesterase enzyme screening assay, PDE9A2
# T1 construct: purchased Reaction Biology Corporation, Malvern, Pa
# In short: (§1)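 Enzyme activity is measured as conversion of fluorescent cGMP (4.0 μM) to 5′-GMP after 1 h at R.T. in pH 7.5 HEPES/MgCl2/DTT buffer. Product is separated from substrate by microfluidic mobility shift, and inhibition is derived by comparison with control wells.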
# PDE1A = biological target: T2, PDE1A (Homo sapiens, UniProt P54750); test: Phosphodiesterase enzyme screening assay, PDE1A
# T2 construct: purchased Reaction Biology Corporation, Malvern, Pa
# In short: as §1
# PDE1B = biological target: T3, PDE1B (Homo sapiens, UniProt Q01064); test: Phosphodiesterase enzyme screening assay, PDE1B
# T3 construct: purchased Reaction Biology Corporation, Malvern, Pa
# In short: as §1
# [1] = ratio of IC50 values, PDE1A versus PDE9A2, value greater than 1 indicates greater selectivity for PDE9A2
# [2] = ratio of IC50 values, PDE1B versus PDE9A2, value greater than 1 indicates greater selectivity for PDE9A2
# [3] = Table 1, 10 concentrations, 4.0 μM cGMP substrate, 1 hour at R.T., read-out: Band (PDE9A2 IC50)
# [4] = Table 1, ratio of IC50 values, value greater than 1 indicates greater selectivity for PDE9A2
# [5] = 4.0 μM cGMP substrate, 1 hour at R.T., read-out: Band (PDE9A2 IC50)
# [6] = ratio of IC50 values PDE1A / PDE9A2, value greater than 1 = greater selectivity for PDE9A2
# [7] = ratio of IC50 values PDE1B / PDE9A2, value greater than 1 = greater selectivity for PDE9A2
# [8] = ratio of IC50 values, value greater than 1 indicates greater selectivity for PDE9A2
# [9] = IC50 band, 4.0 μM cGMP substrate, 1 hour at R.T.
# [10] = ratio of IC50 values PDE1A vs PDE9A2, value greater than 1 indicates greater selectivity for PDE9A2
# [11] = ratio of IC50 values PDE1B vs PDE9A2, value greater than 1 indicates greater selectivity for PDE9A2
# T1 sequence (O76083 1-533 isoform O76083-2): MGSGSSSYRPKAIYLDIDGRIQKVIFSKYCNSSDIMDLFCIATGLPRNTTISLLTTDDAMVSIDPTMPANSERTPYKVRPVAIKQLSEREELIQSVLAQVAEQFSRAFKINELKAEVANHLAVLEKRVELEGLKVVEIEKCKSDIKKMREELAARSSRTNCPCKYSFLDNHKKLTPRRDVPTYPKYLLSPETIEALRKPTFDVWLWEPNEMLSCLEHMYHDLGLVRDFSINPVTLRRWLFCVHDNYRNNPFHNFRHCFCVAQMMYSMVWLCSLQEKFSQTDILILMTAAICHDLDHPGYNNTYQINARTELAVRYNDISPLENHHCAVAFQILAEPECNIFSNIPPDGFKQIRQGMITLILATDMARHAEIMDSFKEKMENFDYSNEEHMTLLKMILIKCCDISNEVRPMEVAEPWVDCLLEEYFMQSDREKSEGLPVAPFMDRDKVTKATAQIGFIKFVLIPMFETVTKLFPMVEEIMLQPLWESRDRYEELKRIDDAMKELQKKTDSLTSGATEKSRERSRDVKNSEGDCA
# T2 sequence (P54750 whole entry): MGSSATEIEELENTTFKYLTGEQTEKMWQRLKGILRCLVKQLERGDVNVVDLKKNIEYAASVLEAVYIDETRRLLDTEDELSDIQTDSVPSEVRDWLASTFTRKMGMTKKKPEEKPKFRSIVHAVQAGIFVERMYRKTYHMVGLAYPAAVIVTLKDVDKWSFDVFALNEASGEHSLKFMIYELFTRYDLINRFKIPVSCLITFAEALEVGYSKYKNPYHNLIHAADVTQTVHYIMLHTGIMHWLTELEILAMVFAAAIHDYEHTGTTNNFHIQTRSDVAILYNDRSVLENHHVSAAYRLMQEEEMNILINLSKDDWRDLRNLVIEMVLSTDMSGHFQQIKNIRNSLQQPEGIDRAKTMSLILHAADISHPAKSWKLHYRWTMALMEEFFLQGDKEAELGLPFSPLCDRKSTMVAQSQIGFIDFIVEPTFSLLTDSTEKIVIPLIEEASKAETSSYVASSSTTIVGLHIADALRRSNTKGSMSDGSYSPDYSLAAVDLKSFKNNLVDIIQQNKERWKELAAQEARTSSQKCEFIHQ
# T3 sequence (Q01064 whole entry): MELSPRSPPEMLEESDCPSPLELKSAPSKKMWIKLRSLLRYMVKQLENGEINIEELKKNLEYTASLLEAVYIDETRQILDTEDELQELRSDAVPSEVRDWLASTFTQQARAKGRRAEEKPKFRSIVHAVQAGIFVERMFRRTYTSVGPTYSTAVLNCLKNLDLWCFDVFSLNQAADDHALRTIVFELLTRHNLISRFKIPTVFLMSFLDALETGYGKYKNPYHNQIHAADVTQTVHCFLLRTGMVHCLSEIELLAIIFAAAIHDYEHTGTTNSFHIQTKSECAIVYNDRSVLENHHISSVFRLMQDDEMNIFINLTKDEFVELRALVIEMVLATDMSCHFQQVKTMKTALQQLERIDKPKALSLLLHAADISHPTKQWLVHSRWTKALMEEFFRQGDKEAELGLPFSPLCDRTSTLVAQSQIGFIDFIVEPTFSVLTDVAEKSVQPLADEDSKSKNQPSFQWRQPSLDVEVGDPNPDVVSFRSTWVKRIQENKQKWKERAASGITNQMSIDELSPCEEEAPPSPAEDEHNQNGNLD
smiles,measurement,setting,value
"Cc1ccncc1-c1ncc2c(=O)[nH]c(C3CN(Cc4cn5ccccc5n4)CC3C)nn12 (single isomer, unassigned; (+)) [(+)-2-((3,4-trans)-1-(imidazo[1,2-a]pyridin-2-ylmethyl)-4-methylpyrrolidin-3-yl)-7-(4-methylpyridin-3-yl)imidazo[5,1-f][1,2,4]triazin-4(3H)-one]",IC50,PDE9A2; read-out: Band (PDE9A2 IC50),< 1 µM
same,PDE1A selectivity (versus PDE9A2),PDE1A; [1],128
same,PDE1B selectivity (versus PDE9A2),PDE1B; [2],230
"CC1CN(Cc2ccccc2Cl)CC1c1nn2c(C3CCOCC3)ncc2c(=O)[nH]1 (single isomer, unassigned; (+)) [(+)-2-((3,4-trans)-1-(2-chlorobenzyl)-4-methylpyrrolidin-3-yl)-7-(tetrahydro-2H-pyran-4-yl)imidazo[5,1-f][1,2,4]triazin-4(3H)-one]",IC50,PDE9A2; [3],< 1 µM
same,PDE1A selectivity (versus PDE9A2),PDE1A; [4],92
same,PDE1B selectivity (versus PDE9A2),PDE1B; [4],48
"Cc1ccccc1-c1ncc2c(=O)[nH]c(C3CN(Cc4ncccn4)CC3C)nn12 (single isomer, unassigned; (+)) [(+)-2-((3,4-trans)-4-methyl-1-(pyrimidin-2-ylmethyl)pyrrolidin-3-yl)-7-(o-tolyl)imidazo[5,1-f][1,2,4]triazin-4(3H)-one]",IC50,PDE9A2; [3],< 1 µM
same,PDE1A selectivity (versus PDE9A2),PDE1A; [4],84
same,PDE1B selectivity (versus PDE9A2),PDE1B; [4],119
"CC1CN(Cc2ccccc2OC(F)(F)F)CC1c1nn2c(C3CCOCC3)ncc2c(=O)[nH]1 (single isomer, unassigned; (+)) [(+)-2-((3,4-trans)-4-methyl-1-(2-(trifluoromethoxy)benzyl)pyrrolidin-3-yl)-7-(tetrahydro-2H-pyran-4-yl)imidazo[5,1-f][1,2,4]triazin-4(3H)-one]",IC50,PDE9A2; [5],< 1 µM
same,PDE1A selectivity (versus PDE9A2),PDE1A; [6],173
same,PDE1B selectivity (versus PDE9A2),PDE1B; [7],24
"CC1CN(Cc2nccs2)CC1c1nn2c(C3CCOCC3)ncc2c(=O)[nH]1 (single isomer, unassigned; (+)) [(+)-2-((3,4-trans)-4-methyl-1-(thiazol-2-ylmethyl)pyrrolidin-3-yl)-7-(tetrahydro-2H-pyran-4-yl)imidazo[5,1-f][1,2,4]triazin-4(3H)-one]",IC50,PDE9A2; read-out: Band (PDE9A2 IC50),< 1 µM
same,PDE1A selectivity (versus PDE9A2),PDE1A; [8],150
same,PDE1B selectivity (versus PDE9A2),PDE1B; [8],147
"CC1CN(Cc2cccc(C#N)c2)CC1c1nn2c(C3CCOCC3)ncc2c(=O)[nH]1 (single isomer, unassigned; (+)) [(+)-3-(((3,4-trans)-3-methyl-4-(4-oxo-7-(tetrahydro-2H-pyran-4-yl)-3,4-dihydroimidazo[5,1-f][1,2,4]triazin-2-yl)pyrrolidin-1-yl)methyl)benzonitrile]",IC50,PDE9A2; [3],< 1 µM
same,PDE1A selectivity (versus PDE9A2),PDE1A; [4],942
same,PDE1B selectivity (versus PDE9A2),PDE1B; [4],343
"Cc1ccnc(CN2CC(C)C(c3nn4c(C5CCOCC5)ncc4c(=O)[nH]3)C2)c1 (single isomer, unassigned; (+)) [(+)-2-((3,4-trans)-4-methyl-1-((4-methylpyridin-2-yl)methyl)pyrrolidin-3-yl)-7-(tetrahydro-2H-pyran-4-yl)imidazo[5,1-f][1,2,4]triazin-4(3H)-one]",IC50,PDE9A2; [5],< 1 µM
same,PDE1A selectivity (versus PDE9A2),PDE1A; [6],143
same,PDE1B selectivity (versus PDE9A2),PDE1B; [7],116
"CC1CN(Cc2cccnn2)CC1c1nn2c(C3CCOCC3)ncc2c(=O)[nH]1 (single isomer, unassigned; (+)) [(+)-2-((3,4-trans)-4-methyl-1-(pyridazin-3-ylmethyl)pyrrolidin-3-yl)-7-(tetrahydro-2H-pyran-4-yl)imidazo[5,1-f][1,2,4]triazin-4(3H)-one]",IC50,PDE9A2; [3],< 1 µM
same,PDE1A selectivity (versus PDE9A2),PDE1A; [4],182
same,PDE1B selectivity (versus PDE9A2),PDE1B; [4],276
"Cc1ccc(F)cc1-c1ncc2c(=O)[nH]c(C3CN(Cc4ccccn4)CC3C)nn12 (single isomer, unassigned; (+)) [(+)-7-(5-fluoro-2-methylphenyl)-2-((3,4-trans)-4-methyl-1-(pyridin-2-ylmethyl)pyrrolidin-3-yl)imidazo[5,1-f][1,2,4]triazin-4(3H)-one]",IC50,PDE9A2; [9],< 1 µM
same,PDE1A selectivity (versus PDE9A2),PDE1A; [10],560
same,PDE1B selectivity (versus PDE9A2),PDE1B; [11],277
"CC1CN(Cc2ccccn2)CC1c1nn2c(C3CCC(F)(F)CC3)ncc2c(=O)[nH]1 (single isomer, unassigned; (+)) [(+)-7-(4,4-difluorocyclohexyl)-2-((3,4-trans)-4-methyl-1-(pyridin-2-ylmethyl)pyrrolidin-3-yl)imidazo[5,1-f][1,2,4]triazin-4(3H)-one]",IC50,PDE9A2; [9],< 1 µM
same,PDE1A selectivity (versus PDE9A2),PDE1A; [10],167
same,PDE1B selectivity (versus PDE9A2),PDE1B; [11],362
"Cc1nc(CN2CC(C)C(c3nn4c(C5CCOCC5)ncc4c(=O)[nH]3)C2)no1 (single isomer, unassigned; (+)) [(+)-2-((3,4-trans)-4-methyl-1-((5-methyl-1,2,4-oxadiazol-3-yl)methyl)pyrrolidin-3-yl)-7-(tetrahydro-2H-pyran-4-yl)imidazo[5,1-f][1,2,4]triazin-4(3H)-one]",IC50,PDE9A2; read-out: Band (PDE9A2 IC50),< 1 µM
same,PDE1A selectivity (versus PDE9A2),PDE1A; [8],20
same,PDE1B selectivity (versus PDE9A2),PDE1B; [8],21
"CC1CN(Cc2cc(F)ccc2F)CC1c1nn2c(C3CCOCC3)ncc2c(=O)[nH]1 (single isomer, unassigned; (+)) [(+)-2-((3,4-trans)-1-(2,5-difluorobenzyl)-4-methylpyrrolidin-3-yl)-7-(tetrahydro-2H-pyran-4-yl)imidazo[5,1-f][1,2,4]triazin-4(3H)-one]",IC50,PDE9A2; [3],< 1 µM
same,PDE1A selectivity (versus PDE9A2),PDE1A; [4],97
same,PDE1B selectivity (versus PDE9A2),PDE1B; [4],118
"CC1CN(Cc2ncccc2C(F)(F)F)CC1c1nn2c(C3CCOCC3)ncc2c(=O)[nH]1 (single isomer, unassigned; (+)) [(+)-2-((3,4-trans)-4-methyl-1-((3-(trifluoromethyl)pyridin-2-yl)methyl)pyrrolidin-3-yl)-7-(tetrahydro-2H-pyran-4-yl)imidazo[5,1-f][1,2,4]triazin-4(3H)-one]",IC50,"PDE9A2; Table 3, 4.0 μM cGMP substrate, 1 hour at R.T., read-out: Band (PDE9A2 IC50)",< 1 µM
same,PDE1A selectivity (versus PDE9A2),"PDE1A; ratio of IC50 values, PDE1A versus PDE9A2, value greater than 1 = greater selectivity for PDE9A2",123
same,PDE1B selectivity (versus PDE9A2),"PDE1B; ratio of IC50 values, PDE1B versus PDE9A2, value greater than 1 = greater selectivity for PDE9A2",58
"CCC(CC)c1ncc2c(=O)[nH]c(C3CN(Cc4ccccc4)CC3C)nn12 (single isomer, unassigned; (+)) [(+)-2-((3,4-trans)-1-benzyl-4-methylpyrrolidin-3-yl)-7-(pentan-3-yl)imidazo[5,1-f][1,2,4]triazin-4(3H)-one]",IC50,PDE9A2; read-out: Band (PDE9A2 IC50),< 1 µM
same,PDE1A selectivity (versus PDE9A2),PDE1A; [1],175
same,PDE1B selectivity (versus PDE9A2),PDE1B; [2],86
"CC1CN(Cc2ccc3ccccc3n2)CC1c1nn2c(C3CCOCC3)ncc2c(=O)[nH]1 (single isomer, unassigned; (-)) [(−)-2-((3,4-trans)-4-methyl-1-(quinolin-2-ylmethyl)pyrrolidi] [(−)-2-((3,4-trans)-4-methyl-1-(quinolin-2-ylmethyl)pyrrolidin-3-yl)-7-(tetrahydro-2H-pyran-4-yl)imidazo[5,1-f][1,2,4]triazin-4(3H)-one]",IC50,PDE9A2; [3],< 1 µM
same,PDE1A selectivity (versus PDE9A2),PDE1A; [4],56
same,PDE1B selectivity (versus PDE9A2),PDE1B; [4],48
"CC1CN(Cc2cccc(C3CC3)c2)CC1c1nn2c(C3CCOCC3)ncc2c(=O)[nH]1 (single isomer, unassigned; (+)) [(+)-2-((3,4-trans)-1-(3-cyclopropylbenzyl)-4-methylpyrrolidin-3-yl)-7-(tetrahydro-2H-pyran-4-yl)imidazo[5,1-f][1,2,4]triazin-4(3H)-one]",IC50,PDE9A2; [3],< 1 µM
same,PDE1A selectivity (versus PDE9A2),PDE1A; [4],703
same,PDE1B selectivity (versus PDE9A2),PDE1B; [4],903
"CC1CN(Cc2ccccc2N(C)C)CC1c1nn2c(C3CCOCC3)ncc2c(=O)[nH]1 (single isomer, unassigned; (+)) [(+)-2-((3,4-trans)-1-(2-(dimethylamino)benzyl)-4-methylpyrrolidin-3-yl)-7-(tetrahydro-2H-pyran-4-yl)imidazo[5,1-f][1,2,4]triazin-4(3H)-one]",IC50,PDE9A2; [3],< 1 µM
same,PDE1A selectivity (versus PDE9A2),PDE1A; [4],363
same,PDE1B selectivity (versus PDE9A2),PDE1B; [4],279
"CC1CN(C(=O)c2ccc(C#N)cc2)CC1c1nn2c(C3CCOCC3)ncc2c(=O)[nH]1 (single isomer, unassigned; (-)) [(−)-4-((3,4-trans)-3-methyl-4-(4-oxo-7-(tetrahydro-2H-pyran-4-yl)-3,4-dihydroimidazo[5,1-f][1,2,4]triazin-2-yl)pyrrolidine-1-carbonyl)benzonitrile]",IC50,PDE9A2; [3],< 1 µM
same,PDE1A selectivity (versus PDE9A2),PDE1A; [4],14
same,PDE1B selectivity (versus PDE9A2),PDE1B; [4],21
"CC1CN(Cc2ccc(F)cc2)CC1c1nn2c(-c3cccc(F)c3)ncc2c(=O)[nH]1 (single isomer, unassigned; (+)) [(+)-2-((3,4-trans)-1-(4-fluorobenzyl)-4-methylpyrrolidin-3-yl)-7-(3-fluorophenyl)imidazo[5,1-f][1,2,4]triazin-4(3H)-one]",IC50,PDE9A2; read-out: Band (PDE9A2 IC50),< 1 µM
same,PDE1A selectivity (versus PDE9A2),PDE1A; [1],42
same,PDE1B selectivity (versus PDE9A2),PDE1B; [2],57
